Source: patent US12655436B2, “Import of unnatural or modified nucleoside triphosphates into cells via nucleic acid triphosphate transporters” (The Scripps Research Institute, priority 2014, dated 2026)

How the values were obtained:
Polymerase = conditions: 10, 5, 2 or 1 μM, 30° C., 20 nM DNA
Description: Polymerase (15 μg/ml) is incubated at 30° C. in buffer (50 mM TRIS pH 7.5, 0.05% Tween 20, 6 mM MgSO4, 1 mM EDTA, 50 mM NaCl) with 20 nM DNA. […] Tubes are incubated at 30° C. and aliquots are taken at 0.33, 0.66, 1, 2, 5, and 15 mins from the 4 reaction tubes for quenching and 15% urea acrylamide gel analysis. 1 mM dNTPs are added to the remaining reaction tubes and after a further 10 mins an aliquot is taken for gel analysis (chase).

actively growing E. coli = conditions: for degradation of triphosphate in the presence of actively growing E. coli: preliminary characterization, HPLC and MALDI
Description: dNaMTP or d5SICSTP (10 mM each) were added to media to a final concentration of 0.25 mM. Cells were incubated with the substrate with shaking at 37° C. for 30 min and then pelleted (8,000 rfu for 5 min, 4° C.). An aliquot of the media fraction (40 μl) was mixed with acetonitrile (80 μl) to precipitate proteins, and then incubated at RT for 30 min. Samples were either analyzed immediately by HPLC or stored at −80° C. until analysis. Analysis began with centrifugation (12,000 rfu for 10 min, RT), then the pellet was discarded, and the supernatant was reduced to ˜20 μl, resuspended in 95% 0.1 M TEAB, pH 7.5; 5% acetonitrile, to a final volume of 50 μl, and analyzed by HPLC.
Samples were applied to a LC column (3 μm C18 300 Å, 250×4.6 mm) and subjected to a linear gradient of 0-40% with 20% 0.1 M TEAB, pH 7.5; 80% acetonitrile over 40 min at a flow rate of 1 ml/min.
Injection series included two extra control samples containing 5 nmol of dNaMTP or d5SICSTP. […] After peak integration, the ratio of the unknown peak to the control peak adjusted for the loss from the extraction step (62% and 70% loss for dNaM and d5SICS, respectively), provided a measure of the amount of each of the moieties in a sample. To determine the relative concentrations of unnatural nucleotide inside a cell, the amount of imported unnatural nucleotide was then divided by the volume of cells, which was calculated from the volume of a single E. coli cell of (1 μm^3) multiplied by the number of cells in each culture (OD600 of 1.0 equal to 1×10^9 cells per ml). An RpNTT2 sample was used as a negative control and its signal was subtracted to account for any incomplete washing of nucleotide species from the media.

E. coli C41(DE3) = assay: pINF replication in E. coli C41(DE3)-pACS: growth (OD600) and relative plasmid copy number; conditions: 0.25 mM triphosphates; absence of pINF
Description: A single clone of freshly transformed E. coli C41(DE3)-pACS was grown overnight in 2×YT medium (3 ml) supplemented with streptomycin (50 μg/ml) and KPi (50 mM). After 100-fold dilution into the same medium (300 ml) and outgrowth at 37° C. to an OD600 of 0.20, IPTG was added to a final concentration of 1 mM to induce the expression of PtNTT2. After 40 min, the cultures were rapidly cooled to 0° C., washed with sterile water (3×150 ml), and resuspended in 10% glycerol (1.5 ml).
An aliquot of electrocompetent C41(DE3)-pACS cells (50 μL) was mixed with pINF (2 μL, 400 ng), and electroporated in a 0.2 cm gap cuvette. […]
The cells were resuspended in fresh 2×YT medium (1.5 ml, 50 μg/ml streptomycin, 100 μg/ml ampicillin, 1 mM IPTG, 50 mM KPi, 0.25 mM dNaMTP, 0.25 mM d5SICSTP) and grown at 37° C. with shaking (250 rpm). At defined time points, OD600 was determined and aliquots (100 μl) were removed and centrifuged (8000 rfu for 5 min, 4° C.). Spent media was analyzed for nucleotide composition by HPLC and pINF was recovered by spin column purification (Zymo Research Corp.). […]
After recovery, the cells were centrifuged (4000 rfu for 5 min, 4° C.), spent media (0.15 ml) was removed and analyzed for nucleotide composition by HPLC. […]

PtNTT2 [1] = assay: Uptake of d5SICSTP or dNaMTP into E. coli C41(DE3) expressing PtNTT2, media and cytoplasmic fractions by HPLC; assay type: cell-based, Escherichia coli C41(DE3) expressing PtNTT2
Description: (§1) E. coli C41(DE3) freshly transformed with pCDF-1b-PtNTT2 was grown in 2×YT with streptomycin overnight, then diluted (1:100) into fresh 2×YT medium (1 ml of culture per uptake with [α-^32P]-dATP; 2 ml of culture per uptake with d5SICSTP or dNaMTP) supplemented with 50 mM potassium phosphate (KPi) and streptomycin. […] Cells were grown to an OD600 of ˜0.6 and expression was induced by the addition of IPTG (1 mM). The culture was allowed to grow for another hour (final OD600 ˜1.2) and then assayed directly for uptake as described below using a method adapted from Haferkamp, et al.
To analyze the intracellular dephosphorylation of unnatural nucleoside triphosphates, cell pellets were subjected to 3×100 μl washes of ice cold KPi (50 mM). Pellets were then resuspended in 250 μl of ice cold KPi (50 mM) and lysed with 250 μl of Lysis buffer L7 of the PureLink Quick Plasmid DNA Miniprep Kit (200 mM NaOH, 1% w/v SDS), after which the resulting solution was incubated at RT for 5 min. Precipitation buffer N4 (350 μl, 3.1 M potassium acetate, pH 5.5) was added, and the sample was mixed to homogeneity.

TpNTT2 = assay: [α-32P]-dATP uptake into E. coli C41(DE3) expressing NTT, TLC/phosphorimaging; assay type: cell-based, Thalassiosira pseudonana
Description: as §1
(§2) To analyze the intracellular dephosphorylation of dATP, after induction of an NTT, an uptake reaction was initiated by the addition of dATP (spiked with [α-^32P]-dATP) to a final concentration of 0.25 mM, followed by incubation at 37° C. with shaking for 30 min. A culture was then centrifuged (8,000 rfu for 5 min, RT). Supernatant was analyzed by thin layer chromatography (TLC), while cell pellets were washed 3 times with ice cold KPi (50 mM, 100 μL) to remove excess radioactive substrate, lysed with NaOH (0.2 M, 100 μl) and centrifuged (10,000 rfu for 5 min RT) to pellet the cell debris, before the supernatant (1.5 μl) was analyzed by TLC. […]

PtNTT2 [2] = assay: as above; assay type: cell-based, Phaeodactylum tricornutum; conditions: for dATP transport into cells by NTT: PtNTT2
Description: as §1
To analyze the intracellular dephosphorylation of dATP, after induction of an NTT, an uptake reaction was initiated by the addition of dATP (spiked with [α-^32P]-dATP) to a final concentration of 0.25 mM, followed by incubation at 37° C. with shaking for 30 min. A culture was then centrifuged (8,000 rfu for 5 min, RT). Supernatant was analyzed by thin layer chromatography (TLC), while cell pellets were washed 3 times with ice cold KPi (50 mM, 100 μL) to remove excess radioactive substrate, lysed with NaOH (0.2 M, 100 μl) and centrifuged (10,000 rfu for 5 min RT) to pellet the cell debris, before the supernatant (1.5 μl) was analyzed by TLC.
Samples (1 μl) were applied on a 0.5 mm polyethyleneimine cellulose TLC plate and eluted first by sodium formate (0.5 M, pH 3.0) for 30 sec, then by sodium formate (2.5 M, pH 3.0) for 2.5 m, and finally by sodium formate (4.0 M, pH 3.0) for 40 m. Plates were dried using a heat gun and quantified by phosphorimaging and imaging software.
The experiments described herein illustrate the plasmid-based expression of eight different NTTs in E. coli C41(DE3) (Table 9A). The uptake of [α-^32P]-dATP was examined as a surrogate for the unnatural triphosphates (FIG. 5).

PamNTT5 = assay: as above; assay type: cell-based, Protochlamydia amoebophila
Description: as §1, §2

PamNTT2 = assay: as above; assay type: cell-based, Protochlamydia amoebophila
Description: as §1, §2

[3] = Nucleotide extraction from cells for HPLC analysis: recovery and triphosphate decomposition; set-up: species or system E. coli; conditions: ratio of 3P composition before and after extraction
Description: To minimize the effect of the lysis and triphosphate extraction protocols on the decomposition of nucleoside triphosphate within the cell, the following extraction procedure was discovered that led to an unexpectedly highest recovery with and low extent of decomposition (Table 9). Cells were grown, washed, and then 5 nmol of either dNaMTP or d5SICSTP was added to the pellets, which were then subjected to various types of extractions including boiling water, hot ethanol, cold methanol, freeze and thaw, lysozyme, glass beads, NaOH, trichloroacetic acid (TCA) with Freon, and perchloric acid (PCA) with KOH. The recovery and composition of the control was quantified by HPLC. […] Pellets were resuspended in ice cold KPi (50 mM, 250 μl) before addition of NaOH to decrease dephosphorylation after cell lysis (Method 4).

Cc1ccc2c(=S)n([C@H]3C[C@H](O)[C@@H](CO)O3)ccc2c1 [(d)5SICS]
addition to DNA primer by polymerase (gel band shift) (Polymerase): extension by one base

COc1cc2ccccc2cc1[C@H]1C[C@H](O)[C@@H](CO)O1 [(d)NaM]
addition to DNA primer by polymerase (gel band shift) (Polymerase): extension by one base

O=P(O)(O)O [KPi, potassium phosphate, reference compound]
inhibition of dephosphorylation of unnatural triphosphates (actively growing E. coli; growing bacterial culture): significantly inhibited

Cc1ccc2c(=S)n([C@H]3C[C@H](O)[C@@H](COP(=O)(O)OP(=O)(O)OP(=O)(O)O)O3)ccc2c1 [d5SICSTP]
effect of added triphosphates on E. coli growth / toxicity (E. coli C41(DE3)): only a slight decrease in growth
degradation of triphosphate in the presence of actively growing E. coli (actively growing E. coli): degraded
import into E. coli by PtNTT2 (PtNTT2 [1]): efficiently imported

Nc1ncnc2c1ncn2[C@H]1C[C@H](O)[C@@H](COP(=O)(O)OP(=O)(O)OP(=O)(O)O)O1 [dATP]
dATP transport into cells by NTT (TpNTT2): efficiently transported
[α-32P]-dATP uptake as a function of transporter induction (PtNTT2 [2]; 1 mM IPTG induction, media containing 50 mM KPi): maximal
dATP transport into cells by NTT (PtNTT2 [2]): efficiently transported
dATP transport into cells by NTT (PtNTT2 [2]; listed as [α-^32P]-dATP): significantly more active
dATP uptake by NTT (PamNTT5): measurable uptake
dATP uptake by NTT (PamNTT2): measurable uptake
extracellular stability in the presence of potassium phosphate (KPi) (actively growing E. coli; KPi in growth medium): significantly increased

COc1cc2ccccc2cc1[C@H]1C[C@H](O)[C@@H](COP(=O)(O)OP(=O)(O)OP(=O)(O)O)O1 [dNaMTP]
effect of added triphosphates on E. coli growth / toxicity (E. coli C41(DE3)): only a slight decrease in growth
degradation of triphosphate in the presence of actively growing E. coli (actively growing E. coli): degraded
import into E. coli by PtNTT2 (PtNTT2 [1]): efficiently imported

COc1cc2ccccc2cc1[C@H]1C[C@H](O)[C@@H](CO)O1 [dNaM]
Triphosphate stability, % ([3]; Method 1 TCA with Freon): 92%
Triphosphate stability, % ([3]; Method 2 PCA w/KOH): 98%
Triphosphate stability, % ([3]; Method 3 NaOH w/KOAc): 86%
Triphosphate stability, % ([3]; Method 4 NaOH w/KOAc supplemented w/ KPi (50 mM)): 99%
